The record followed here is US6573259B2, “Inhibitors of interleukin-1β converting enzyme” (Vertex Pharmaceuticals Incorporated, priority 1996, dated 2003).

Structures are written as SMILES. Where only a bound is given, the exact number is not on record here.

Assay [1] relates to Human Peripheral Blood Mononuclear Cells (PBMC). The assay is described as follows: PBMC cell assay (IL-1β assay with human PBMC, LPS stimulated, ELISA). As to conditions: LPS 5 ng/ml, 16-18 hr. The format is cell-based. An excerpt: IL-L1β Assay with a Mixed Population of Human Peripheral Blood Mononuclear Cells (PBMC) or Enriched Adherent Mononuclear Cells
Processing of pre-IL-1β by ICE can be measured in cell culture using a variety of cell sources. Human PBMC obtained from healthy donors provides a mixed population of lymphocyte subtypes and mononuclear cells that produce a spectrum of interleukins and cytokines in response to many classes of physiological stimulators. Adherent mononuclear cells from PBMC provides an enriched source of normal monocytes for selective studies of cytokine production by activated cells.
An initial dilution series of test compound in DMSO or ethanol is prepared, with a subsequent dilution into RPMI-10% FBS media (containing 2 mM L-glutamine, 10 mM HEPES, 50 U and 50 ug/ml pen/strep) respectively to yield drugs at 4× the final test concentration containing 0.4% DMSO or 0.4% ethanol. The final concentration of DMSO is 0.1% for all drug dilutions. A concentration titration which brackets the apparent Ki for a test compound determined in an ICE inhibition assay is generally used for the primary compound screen.
Generally 5-6 compound dilutions are tested and the cellular component of the assay is performed in duplicate, with duplicate ELISA determinations on each cell culture supernatant.
Buffy coat cells isolated from one pint human blood (yielding 40-45 ml final volume plasma plus cells) are diluted with media to 80 ml and LeukoPREP separation tubes (Becton Dickinson) are each overlaid with 10 ml of cell suspension. After 15 min centrifugation at 1500-1800 xg, the plasma/media layer is aspirated and then the mononuclear cell layer is collected with a Pasteur pipette and transferred to a 15 ml conical centrifuge tube (Corning). […] The PBMC pellet is resuspended in a small volume of media, the cells are counted and adjusted to 6×10^6 cells/ml. […]
The skilled practitioner realizes that values obtained in cell assays, such as those described herein, can depend on multiple factors. The values may not necessarily represent fine quantitative results.

Another assay concerns Human whole blood. The assay is described as follows: Whole blood assay for IL-1β production. Format: cell-based. As to conditions: 16-18 hr. The protocol: Whole Blood Assay for IL-1β Production
The whole blood assay is a simple method for measuring the production of IL-1β (or other cytokines) and the activity of potential inhibitors. The complexity of this assay system, with its full complement of lymphoid and inflammatory cell types, spectrum of plasma proteins and red blood cells is an ideal in vitro representation of human in vivo physiologic conditions.
Set incubator or water bath at 30° C. Aliquot 0.25 ml of blood into 1.5 ml eppendorf tubes, making sure to invert the whole blood sample tubes after every two aliquots. Differences in replicates may result if the cells sediment and are not uniformly suspended. Use of a positive displacement pipette will also minimize differences between replicate aliquots.
Prepare drug dilutions in sterile pyrogen-free saline by serial dilution. A dilution series which brackets the apparent Ki for a test compound determined in an ICE inhibition assay is generally used for the primary compound screen. For extremely hydrophobic compounds, prepare compound dilutions in fresh plasma obtained from the same blood donor or in PBS-containing 5% DMSO to enhance solubility.
Add 25 μl test compound dilution or vehicle control and gently mix the sample. Then add 5.0 μl LPS solution (250 ng/ml stocked prepared fresh: 5.0 ng/ml final concentration LPS), and mix again. Incubate the tubes at […] in a water bath for 16-18 hr with occasional mixing. Alternatively, the tubes can be placed in a rotator set at 4 rpm for the same incubation period. This assay should be set up in duplicate or triplicate with the following controls: negative control—no LPS; positive control—no test inhibitor; vehicle control—the highest concentration of DMSO or compound solvent used in the experiment. Additional saline is added to all control tubes to normalize volumes for both control and experimental whole blood test samples.
After the incubation period, whole blood samples are centrifuged for 10 minutes at ˜2000 rpm in the microfuge, plasma is transferred to a fresh microfuge tube and centrifuged at 1000×g to pellet residual platelets if necessary. Plasma samples may be stored frozen at −70° C. prior to assay for cytokine levels by ELISA.
R & D Systems (614 McKinley Place N.E. Minneapolis, Minn. 55413) Quantikine kits may be used for measurement of IL-1β and TNF-α. The assays are performed according to the manufacturer's directions. IL-1β levels of ˜1-5 ng/ml in positive controls among a range of individuals may be observed. A 1:200 dilution of plasma for all samples is usually sufficient for experiments for ELISA results to fall on the linear range of the ELISA standard curves. It may be necessary to optimize standard dilutions if you observe differences in the whole blood assay. Nerad, J. L. et al., J. Leukocyte Biol., 52, pp. 687-692 (1992).

Setting [2] is: Table 4, mature IL-1β in supernatant.

The compound `O=C[C@H](CC(=O)O)NC(=O)CN1C(=O)C(NC(=O)OCc2ccccc2)N=C(c2ccccc2)c2ccccc21` (stereo partly drawn) [Example 1, (3S)-3-[3(R,S)-1,3-Dihydro-2-oxo-5-phenyl((benzyloxycarbonyl)amino)-2H-1,4-benzodiazepin-1-acetylamino]-4-oxobutyric acid] gave an IC50 in assay [1] (Table 2, mature IL-1β in supernatant) of 20 µM.
`Nc1c(Cl)cc(C(=O)NC2N=C(c3ccccc3)c3ccccc3N(CC(=O)N[C@H](C=O)CC(=O)O)C2=O)cc1Cl` (some centres unmarked) [Example 7] displayed a half-maximal inhibitory concentration (IC50) in the assay on Human whole blood (Table 2, LPS 5.0 ng/ml) above 20 µM.
`O=C[C@H](CC(=O)O)NC(=O)CN1C(=O)C(NC(=O)c2nccc3ccccc23)N=C(c2ccccc2)c2ccccc21` (some centres unmarked) [Example 11]: in the assay with Human whole blood (Table 4, LPS 5.0 ng/ml), the concentration for half-maximal inhibition (IC50) was 9 µM.
`Nc1ccc(C(=O)NC2N=C(c3ccccc3)c3ccccc3N(CC(=O)N[C@H](C=O)CC(=O)O)C2=O)cc1Cl` (some centres unmarked) [Example 18] came in with a half-maximal inhibitory concentration (IC50) in the assay with Human whole blood (Table 2, LPS 5.0 ng/ml) above 20 µM.
In the case of `Cc1cc(C(=O)NC2N=C(c3ccccc3)c3ccccc3N(CC(=O)N[C@H](C=O)CC(=O)O)C2=O)cc(C)c1O` (some centres unmarked) [Example 19], the half-inhibitory concentration (IC50) with Human whole blood (Table 2, LPS 5.0 ng/ml) is 10 µM.
Still for that read-out and setting: the result for `O=C[C@H](CC(=O)O)NC(=O)CN1C(=O)C(NC(=O)c2cc(Cl)c(O)c(Cl)c2)N=C(c2ccccc2)c2ccccc21` (some centres unmarked) [Example 21] reads 10 µM.
With `COc1ccc(Cl)cc1S(=O)(=O)NC1N=C(c2ccccc2)c2ccccc2N(CC(=O)N[C@H](C=O)CC(=O)O)C1=O` (some centres unmarked) [Example 39], the IC50 with Human whole blood (Table 4, LPS 5.0 ng/ml) was above 20 µM.
For the compound `COc1cccc(OC)c1C(=O)C(=O)NC1N=C(c2ccccc2)c2ccccc2N(CC(=O)N[C@H](C=O)CC(=O)O)C1=O` (some centres unmarked) [Example 49], the IC50 in assay [1] (setting [2]) was above 8 µM.
Still for that read-out and setting: the result for `O=C[C@H](CC(=O)O)NC(=O)CN1C(=O)C(NC(=O)c2ccc(O)c(Cl)c2)N=C(c2ccccc2)c2ccccc21` (some centres unmarked) [Example 50] reads above 8 µM.
Compound `Cc1cc(C(=O)NC2N=C(c3ccccc3)c3cc(NC=O)ccc3N(CC(=O)N[C@H](C=O)CC(=O)O)C2=O)cc(C)c1O` (some centres unmarked) [Example 58] yielded a concentration for half-maximal inhibition (IC50) with Human whole blood (Table 4, LPS 5.0 ng/ml) above 20 µM.
Still for that read-out and setting: in the case of `Cc1cc(C(=O)NC2N=C(c3ccccc3)c3cc(N)ccc3N(CC(=O)N[C@H](C=O)CC(=O)O)C2=O)cc(C)c1O` (some centres unmarked) [Example 59] it was 9.2 µM.
